The experiment has as its system microbiota of the intestine. Briefly: 16S microbiota analysis, prophylactic defensin treatment in high fat diet model (Example 10). It counts as in vivo, mice. The text has this: Mice were housed in trios, 4 cages per group. Feed intake was registered daily just before lights were turned off at […]. Individual mice were subjected to experimental procedures in altered order both group and cage wise. Mice were kept at room temperature under a 12-hour light/dark cycle at SPF standard conditions. The treatment regime is described in FIG. 38. Mice were fed either a high fat diet (HFD) or a low fat (LF) control diet. The HFD contained 4 subgroups; 1 hBD2, 1 HD5, 1 hBD2/HD5 and 1 standard HFD without supplementation of defensins. Defensin concentration was 1.2 mg hBD2 per kg mouse per day. HD5 was given in equimolar concentration to hBD2. […] Microbial analyses were carried out to study the microbiota of the intestine. Longitudinal 16S characterization was conducted on 4 paired samples from 60 mice, 240 samples in total. Each mouse was sampled prior to diet change, 1 week post diet change, 4 weeks post diet change and at termination, thus ensuring a thorough characterization of the faecal microbiota as a result of defensin treatment.

This is an account of results in patent US11413328B2, “Methods for treating inflammatory conditions of the lungs” (priority 2016, dated 2022).

Bridges are numbered along the chain shown (N, C = ends). Where no end group is shown, it is not given here.

“GIGDPVTCLKSGAICHPVFCPRRYKQIGTCGLPGTKCCKKP (disulfide 8-37, 15-30, 20-38 (inferred)) [hBD-2, human beta defensin 2]”: for the setting “1.2 mg hBD2 per kg per day in feed, HD5 equimolar, combination 50% + 50%”, the “effect on microbial presence / microbial abundance” value is reported as “affected primarily the microbial presence”. Besides, under “prophylactic treatment, p<0.03”, the “abundance of Barnesiella in the colon” value is “statistically significant increase”. Moreover, for the setting “prophylactic treatment, p=0.1”, the “abundance of Lactobacillaceae in colon” value was “trend towards lower abundance”.
